We go through three molecules from ChEMBL document CHEMBL3763059, “Lanostane-type triterpenes from the fungal endophyte Scleroderma UFSMSc1 (Persoon) Fries” (2016).

SMILES strings stand for the structures. ≈ marks a conversion by molar mass, not a printed value.

What all share (assay type): functional
Experiment [1] has as its system Pichia kudriavzevii. Description: Antifungal activity against Candida krusei ATCC 6258 after 48 hrs by micro dilution method. The settings on record: for MIC: Pichia kudriavzevii, ATCC 6258, 48 h.
Experiment [2] relates to Candida albicans. As to the kind of experiment: Antifungal activity against Candida albicans ATCC 10231 after 48 hrs by microdilution method. The settings on record: for MIC: Candida albicans, ATCC 10231, 48 h. Background: Dilution methods test growth across graded concentrations, often in twofold steps.
The subject of experiment [3] is Candida parapsilosis. Description: Antifungal activity against Candida parapsilosis ATCC 22018 after 48 hrs by micro dilution method. The settings on record: for MIC: Lodderomyces parapsilosis, ATCC 22018, 48 h.
The test system of experiment [4] is Candida tropicalis. As to the kind of experiment: Antifungal activity against Candida tropicalis ATCC 18803 after 48 hrs by micro dilution method. The note with it: for MIC: Candida tropicalis, ATCC 18803, 48 h.

As a reminder, the MIC is the lowest concentration found to suppress growth. Read a high MIC as weaker potency.

Consider `C=C(C)/C=C/C[C@@H](C)[C@H]1CC[C@@]2(C)C3=C(CC[C@]12C)[C@@]1(C)CC[C@H](O)C(C)(C)[C@@H]1CC3`, for which the MLC in experiment [1] was 100 µg/mL (≈ 235 µM); in experiment [2], >100 µg/mL; in experiment [3], 50 µg/mL (≈ 118 µM); in experiment [4] it was 100 µg/mL (≈ 235 µM). Also, the MIC in experiment [1] is 12.5 µg/mL (≈ 29.4 µM); in experiment [2] it was 50 µg/mL (≈ 118 µM); in experiment [3], 25 µg/mL (≈ 58.9 µM); in experiment [4], 50 µg/mL (≈ 118 µM).

In the case of `C[C@H](C/C=C/C(C)(C)O)[C@H]1CC[C@@]2(C)C3=C(CC[C@]12C)[C@@]1(C)CC[C@H](O)C(C)(C)[C@@H]1CC3` (relative stereo), the MLC in experiment [1] is 100 µg/mL (≈ 226 µM); in experiment [2], >100 µg/mL; in experiment [3], 100 µg/mL (≈ 226 µM); in experiment [4], >100 µg/mL. Also, the MIC is 12.5 µg/mL (≈ 28.2 µM) in experiment [1], 50 µg/mL (≈ 113 µM) in experiment [2], 50 µg/mL (≈ 113 µM) in experiment [3] and 50 µg/mL (≈ 113 µM) in experiment [4].

On to `COC(C)(C)/C=C/C[C@@H](C)[C@H]1CC[C@@]2(C)C3=C(CC[C@]12C)[C@@]1(C)CC[C@H](O)C(C)(C)[C@@H]1CC3` (relative stereo), for which the MLC in experiment [1] was determined as 12.5 µg/mL (≈ 27.4 µM); in experiment [2], 25 µg/mL (≈ 54.7 µM); in experiment [3], 25 µg/mL (≈ 54.7 µM); in experiment [4] it was 25 µg/mL (≈ 54.7 µM). Besides, the MIC in experiment [1] is 6.25 µg/mL (≈ 13.7 µM); in experiment [2], 25 µg/mL (≈ 54.7 µM); in experiment [3] it was 12.5 µg/mL (≈ 27.4 µM); in experiment [4], 25 µg/mL (≈ 54.7 µM).
